This assay concerns the target T1, human CTPS1 (Homo sapiens, UniProt P17812).
T1 sequence (P17812 1-591): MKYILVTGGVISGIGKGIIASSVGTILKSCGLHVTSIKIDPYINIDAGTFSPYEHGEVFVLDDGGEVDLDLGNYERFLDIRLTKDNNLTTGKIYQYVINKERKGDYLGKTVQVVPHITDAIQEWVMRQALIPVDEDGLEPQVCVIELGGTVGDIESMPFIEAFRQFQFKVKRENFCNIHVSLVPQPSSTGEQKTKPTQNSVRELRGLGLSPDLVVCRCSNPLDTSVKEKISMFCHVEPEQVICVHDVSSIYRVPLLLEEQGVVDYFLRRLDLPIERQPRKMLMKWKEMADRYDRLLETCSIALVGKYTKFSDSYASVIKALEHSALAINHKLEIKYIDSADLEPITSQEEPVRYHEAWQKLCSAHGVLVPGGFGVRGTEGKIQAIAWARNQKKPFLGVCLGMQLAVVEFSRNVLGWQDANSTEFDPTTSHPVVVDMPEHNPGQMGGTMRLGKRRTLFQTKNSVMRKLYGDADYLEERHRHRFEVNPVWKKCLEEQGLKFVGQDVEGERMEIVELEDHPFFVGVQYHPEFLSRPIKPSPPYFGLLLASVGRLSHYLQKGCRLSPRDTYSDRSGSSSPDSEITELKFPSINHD
The assay is described as follows: ADP-Glo assay, human CTPS1 enzyme inhibition. The assay is classed as biochemical. The conditions noted are these: wild-type human CTPS1, 25 nM enzyme; ADP-Glo; read-out: ADP-Glo_WT_hCTPS1—25 nM_IC50 (IC50). In short, it runs like this: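 Full-length tagged human CTPS1 (25 nM) pre-incubated 10 min at 25° C with compound, then 10 min with ATP (120 μM) and UTP (160 μM); reaction started with L-glutamine (100 μM) and GTP (60 μM), 1% DMSO, in HEPES pH 7.4, 10 mM Mg2+, 5 mM KCl, 2 mM DTT. Run within linear phase at 25° C; ADP measured by ADP-Glo luminescence.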

Counter-ions that a name gives are not always drawn. A value given as a limit tells only on which side of the number the result lay.

As a reminder, the IC50 is the concentration at which inhibition is half-maximal. Take `CCOc1cncc(-c2cnc(C(=O)N[C@]3(c4cccc(NS(=O)(=O)C(F)F)c4)C[C@@H](O)C3)s2)n1` [I-203, N-((1r,3r)-1-(3-((difluoromethyl)sulfonamido)phenyl)-3-hydroxycyclobutyl)-5-(6-ethoxypyrazin-2-yl)thiazole-2-carboxamide]: the concentration for half-maximal inhibition (IC50) lay in the range of 5 to 25 nM. The same measure for `CCOc1cncc(-c2cnc(C(=O)N[C@@H](CN3C[C@H]4C[C@@H]3CO4)c3cccc(NS(=O)(=O)C(F)F)c3)s2)n1` [I-204, N-((R)-2-((1R,4R)-2-oxa-5-azabicyclo[2.2.1]heptan-5-yl)-1-(3-((difluoromethyl)sulfonamido)phenyl)ethyl)-5-(6-ethoxypyrazin-2-yl)thiazole-2-carboxamide]: 5 to 25 nM.

For the molecule `CCOc1cncc(-c2cnc(C(=O)N[C@H](CN3C[C@H]4C[C@@H]3CO4)c3cccc(NS(=O)(=O)C(F)F)c3)s2)n1` [I-205, N-((S)-2-((1R,4R)-2-oxa-5-azabicyclo[2.2.1]heptan-5-yl)-1-(3-((difluoromethyl)sulfonamido)phenyl)ethyl)-5-(6-ethoxypyrazin-2-yl)thiazole-2-carboxamide, formic acid salt], the IC50 is 25 to 50 nM. `CCOc1cncc(-c2cnc(C(=O)N[C@@H](CN3CC[C@@](C)(O)C3)c3cccc(NS(=O)(=O)C(F)F)c3)s2)n1` [I-206, N-((R)-1-(3-((difluoromethyl)sulfonamido)phenyl)-2-((R)-3-hydroxy-3-methylpyrrolidin-1-yl)ethyl)-5-(6-ethoxypyrazin-2-yl)thiazole-2-carboxamide]: the IC50 lay within 5 to 25 nM.

Regarding `CCOc1cncc(-c2cnc(C(=O)N[C@H](CN3CC[C@@](C)(O)C3)c3cccc(NS(=O)(=O)C(F)F)c3)s2)n1` [I-207, N-((S)-1-(3-((difluoromethyl)sulfonamido)phenyl)-2-((R)-3-hydroxy-3-methylpyrrolidin-1-yl)ethyl)-5-(6-ethoxypyrazin-2-yl)thiazole-2-carboxamide], the IC50 fell in the range of 25 to 50 nM. On to `CCOc1cncc(-c2cnc(C(=O)N[C@H](CN3CC[C@](C)(O)C3)c3cccc(NS(=O)(=O)C(F)F)c3)s2)n1` [I-208, N-((S)-1-(3-((difluoromethyl)sulfonamido)phenyl)-2-((S)-3-hydroxy-3-methylpyrrolidin-1-yl)ethyl)-5-(6-ethoxypyrazin-2-yl)thiazole-2-carboxamide, formic acid salt], for which the IC50 was 5 to 25 nM.

On to `CCOc1cncc(-c2cnc(C(=O)N[C@@H](CN3CC[C@](C)(O)C3)c3cccc(NS(=O)(=O)C(F)F)c3)s2)n1` [I-209, N-((R)-1-(3-((difluoromethyl)sulfonamido)phenyl)-2-((S)-3-hydroxy-3-methylpyrrolidin-1-yl)ethyl)-5-(6-ethoxypyrazin-2-yl)thiazole-2-carboxamide, formic acid salt], for which the IC50 is 5 to 25 nM.

Regarding `CCOc1cncc(-c2cnc(C(=O)N[C@@H](CN3C[C@H]4CC[C@@H]3C4)c3cccc(NS(=O)(=O)C(F)F)c3)s2)n1` [I-210, N-((R)-2-((1R,4S)-2-azabicyclo[2.2.1]heptan-2-yl)-1-(3-((difluoromethyl)sulfonamido)phenyl)ethyl)-5-(6-ethoxypyrazin-2-yl)thiazole-2-carboxamide], the IC50 lay in the range of 5 to 25 nM.

`CCOc1cncc(-c2cnc(C(=O)N[C@H](CN3C[C@H]4CC[C@@H]3C4)c3cccc(NS(=O)(=O)C(F)F)c3)s2)n1` [I-211, N-((S)-2-((1R,4S)-2-azabicyclo[2.2.1]heptan-2-yl)-1-(3-((difluoromethyl)sulfonamido)phenyl)ethyl)-5-(6-ethoxypyrazin-2-yl)thiazole-2-carboxamide]: the half-inhibitory concentration (IC50) fell in the range of 50 to 100 nM. In the case of `CCOc1cncc(-c2cnc(C(=O)N[C@@H](CN(C)C)c3cccc(NS(=O)(=O)C(F)F)c3)s2)n1` [I-212, (R)-N-(1-(3-((difluoromethyl)sulfonamido)phenyl)-2-(dimethylamino)ethyl)-5-(6-ethoxypyrazin-2-yl)thiazole-2-carboxamide], the IC50 is 25 to 50 nM.

With `CCOc1cncc(-c2cnc(C(=O)N[C@H](CN(C)C)c3cccc(NS(=O)(=O)C(F)F)c3)s2)n1` [I-213, (S)-N-(1-(3-((difluoromethyl)sulfonamido)phenyl)-2-(dimethylamino)ethyl)-5-(6-ethoxypyrazin-2-yl)thiazole-2-carboxamide], the IC50 is 5 to 25 nM. `CCOc1cncc(-c2cnc(C(=O)N[C@@H](Cn3ccnn3)c3cccc(NS(=O)(=O)C(F)F)c3)s2)n1` [I-214, (R)-N-(1-(3-((difluoromethyl)sulfonamido)phenyl)-2-(1H-1,2,3-triazol-1-yl)ethyl)-5-(6-ethoxypyrazin-2-yl)thiazole-2-carboxamide]: the IC50 was 5 to 25 nM. Turning to `CCOc1cncc(-c2cnc(C(=O)N[C@H](Cn3ccnn3)c3cccc(NS(=O)(=O)C(F)F)c3)s2)n1` [I-215, (S)-N-(1-(3-((difluoromethyl)sulfonamido)phenyl)-2-(1H-1,2,3-triazol-1-yl)ethyl)-5-(6-ethoxypyrazin-2-yl)thiazole-2-carboxamide], the IC50 fell in the range of 5 to 25 nM.

For `CCOc1cncc(-c2cnc(C(=O)N[C@H](Cn3nccn3)c3cccc(NS(=O)(=O)C(F)F)c3)s2)n1` [I-216, (S)-N-(1-(3-((difluoromethyl)sulfonamido)phenyl)-2-(2H-1,2,3-triazol-2-yl)ethyl)-5-(6-ethoxypyrazin-2-yl)thiazole-2-carboxamide], the IC50 was not above 5 nM. As to `CCOc1cncc(-c2cnc(C(=O)N[C@@H](Cn3nccn3)c3cccc(NS(=O)(=O)C(F)F)c3)s2)n1` [I-217, (R)-N-(1-(3-((difluoromethyl)sulfonamido)phenyl)-2-(2H-1,2,3-triazol-2-yl)ethyl)-5-(6-ethoxypyrazin-2-yl)thiazole-2-carboxamide], the IC50 is 5 to 25 nM.

On to `CCOc1cncc(-c2cnc(C(=O)N[C@H](CN3CCCCC3)c3cccc(NS(=O)(=O)C(F)F)c3)s2)n1` [I-218, (S)-N-(1-(3-((difluoromethyl)sulfonamido)phenyl)-2-(piperidin-1-yl)ethyl)-5-(6-ethoxypyrazin-2-yl)thiazole-2-carboxamide], for which the IC50 lay in the range of 25 to 50 nM. Regarding `CCOc1cncc(-c2cnc(C(=O)N[C@@H](CN3CCCCC3)c3cccc(NS(=O)(=O)C(F)F)c3)s2)n1` [I-219, (R)-N-(1-(3-((difluoromethyl)sulfonamido)phenyl)-2-(piperidin-1-yl)ethyl)-5-(6-ethoxypyrazin-2-yl)thiazole-2-carboxamide], the IC50 lay within 5 to 25 nM. For `O=C(N[C@H](CN1CCCC1)c1cccc(NS(=O)(=O)C(F)F)c1)c1ncc(-c2cnn3ccc(Cl)cc23)s1` [I-220, (S)-5-(5-chloropyrazolo[1,5-a]pyridin-3-yl)-N-(1-(3-((difluoromethyl)sulfonamido)phenyl)-2-(pyrrolidin-1-yl)ethyl)thiazole-2-carboxamide], the IC50 was in the range of 25 to 50 nM. Take `O=C(N[C@@H](CN1CCCC1)c1cccc(NS(=O)(=O)C(F)F)c1)c1ncc(-c2cnn3ccc(Cl)cc23)s1` [I-221, (R)-5-(5-chloropyrazolo[1,5-a]pyridin-3-yl)-N-(1-(3-((difluoromethyl)sulfonamido)phenyl)-2-(pyrrolidin-1-yl)ethyl)thiazole-2-carboxamide]: the IC50 was 25 to 50 nM. As to `CCOc1cncc(-c2cnc(C(=O)N[C@@H](c3cccc(NS(=O)(=O)C(F)F)c3)[C@H](C)N3CCOCC3)s2)n1` [I-222, N-((1S,2S)-1-(3-((difluoromethyl)sulfonamido)phenyl)-2-morpholinopropyl)-5-(6-ethoxypyrazin-2-yl)thiazole-2-carboxamide], the concentration for half-maximal inhibition (IC50) lay within 5 to 25 nM. On to `CCOc1cncc(-c2cnc(C(=O)N[C@H](c3cccc(NS(=O)(=O)C(F)F)c3)[C@@H](C)N3CCOCC3)s2)n1` [I-224, N-((1R,2R)-1-(3-((difluoromethyl)sulfonamido)phenyl)-2-morpholinopropyl)-5-(6-ethoxypyrazin-2-yl)thiazole-2-carboxamide], for which the concentration for half-maximal inhibition (IC50) is 5 to 25 nM. As for `CCOc1cncc(-c2cnc(C(=O)N[C@@H](c3cc(NS(=O)(=O)C4CC4)ccn3)[C@@H](C)CO)s2)n1` [I-226, N-((1R,2R)-1-(4-(cyclopropanesulfonamido)pyridin-2-yl)-3-hydroxy-2-methylpropyl)-5-(6-ethoxypyrazin-2-yl)thiazole-2-carboxamide], the IC50 lay in the range of 5 to 25 nM. In the case of `CCOc1cncc(-c2cnc(C(=O)N[C@@H](c3cc(NS(=O)(=O)C4CC4)ccn3)[C@H](C)CO)s2)n1` [I-227, N-((1R,2S)-1-(4-(cyclopropanesulfonamido)pyridin-2-yl)-3-hydroxy-2-methylpropyl)-5-(6-ethoxypyrazin-2-yl)thiazole-2-carboxamide], the IC50 was not above 5 nM. With `CCOc1cncc(-c2cnc(C(=O)N[C@H](c3cc(NS(=O)(=O)C4CC4)ccn3)[C@@H](C)CO)s2)n1` [I-228, N-((1S,2R)-1-(4-(cyclopropanesulfonamido)pyridin-2-yl)-3-hydroxy-2-methylpropyl)-5-(6-ethoxypyrazin-2-yl)thiazole-2-carboxamide] the figure was 5 to 25 nM.

The record behind these values is patent publication US20250270200A1, “CTPS1 INHIBITORS AND USES THEREOF” (Nimbus Clotho, Inc., priority 2022, published 2025).
